Results reported in patent US20100129515A1, “FLAVOUR MODULATING SUBSTANCES” (QUEST INTERNATIONAL SERVICES B.V., priority 2005, published 2010).

Tests used:
[1] = cited from earlier work; for taste: as a dry powder and as an alcoholic or aqueous solution; for pungency: compared with capsaicin
[2] = Taste of solutions in water (Example 7); assay type: in vivo
[3] = Tasting of 0.6% NaCl / 0.03% MSG solutions by professional panel (Examples 9 and 10); assay type: in vivo
Protocol: Three solutions of 0.6% NaCl and 0.03% MSG were prepared.
To a first solution (sample A), 0.1 ppm N-vanillyl-N′-octyl urea was added To a second solution (sample B) 0.2 ppm N-vanillyl-N′-octyl thiourea was added.
(§1) Samples A and B and the reference sample were tasted by a professional panel.
To a first solution (sample A), 5 ppm N-vanillyl-N′-octyl urea was added To a second solution (sample B), 10 ppm N-vanillyl-N′-octyl thiourea was added.

[4] = Tasting of toothpaste by professional panel (Example 13); assay type: in vivo
Protocol: 97 g of a toothpaste base was prepared as follows: 13.8 ml demineralised water, 0.1 g trisodium phosphate (12H2O) and 0.8 g sodium monofluorophosphate were weighed and mixed until clear. 50.0 g of sorbitol was added and the blend was mixed again. The obtained mixture was placed in a Fryma pot. A poly bag was placed in a suitable container and 8.0 g of precipitated silica AC30, 9.0 g of precipitated silica TC15, 0.8 g of sodium carboxymethylcellulose (SCMC 9M31XF) and 1.0 g of a colorant (Tiona (1700)) were weighed and placed in the bag in the order listed. The top of the bag was secured with a tag and the contents were thoroughly mixed to distribute the gum throughout the mixture.
This mixture was added to the Fryma pot. Then 7.0 ml of demineralised water, 1.5 g of sodium lauryl sulphate (Empicol LXV100C) and 5.0 g of PEG 1500 were placed in a beaker and heated to 45° C. and mixed with a Turrax to disperse the ingredients. The dispersion was placed on a magnetic stirrer until clear (while covered with cling film) and was subsequently added to the Fryma pot.
To this base toothpaste 0.8 g of a 25% saccharin soln was added. Part of the base toothpaste was then intensively mixed with N-vanillyl-N′-octyl urea (as obtained in Example 4) to obtain a 0.1 ppm concentration of N-vanillyl-N′-octyl urea (sample A). […]

[5] = Tasting of 0.6% NaCl / 0.03% MSG / 4 ppm pepper oleoresin solutions by professional panel (Example 11); assay type: in vivo
Protocol: Three solutions of 0.6% NaCl and 0.03% MSG and 4 ppm pepper oleoresin (ex Warner Jenkinson, St Louis, USA) were prepared.
To a first solution (sample A), 1 ppm N-vanillyl-N′-octyl urea was added To a second solution (sample B), 2 ppm N-vanillyl-N′-octyl thiourea was added.
as §1

[6] = Tasting of fondant with 2500 ppm menthol by professional panel (Example 8); assay type: in vivo
Protocol: Three samples of fondant were prepared by mixing 65% Fondacreme (ex Belgosuc NV Belgium) with 35% sugar syrup (67° Brix). 2500 Ppm menthol was added as a 50% solution in propylene glycol.
To a first sample (sample A), 0.1 ppm N-vanillyl-N′-octyl urea was added To a second sample (sample B), 0.2 ppm N-vanillyl-N′-octyl thiourea was added. Samples A, B and the reference sample were tasted by a professional panel. […] The cooling was perceived more through the whole oral cavity.

[7] = Tasting of 0.6% sodium chloride / 0.03% mono sodium glutamate solution by trained flavourist panel (Example 3); assay type: in vivo; settings: 10 ppm in 0.6% sodium chloride, compared with solution A without substance
Protocol: 2 solutions were prepared containing respectively:
0.03% mono sodium glutamate
10 ppm N-vanillyl urea as described in example 1
Both solutions were tasted by a trained flavourist panel, which described the solutions as follows: […]

[8] = Tasting of 10 ppm menthol solution by trained flavourist panel (Example 4); assay type: in vivo; settings: 1 ppm added to 10 ppm menthol solution; compared to the base
Protocol: 1 ppm N-vanillyl urea as described in example 1 was added to a 10 ppm menthol solution and compared to the base. Both solutions were tasted by a trained flavourist panel, which described the solutions as follows: […]

[9] = Tasting of 5% (w/w) ethanol solutions by trained flavourist panel (Example 2); assay type: in vivo; settings: reference 5% (w/w) alcoholic solution
Protocol: The solid product obtained in example 1 was dissolved in ethanol/water (1:1, w/w) to prepare a 1000 ppm stock solution.
The following 3 alcoholic solutions are prepared: A: 1 ppm N-vanillyl urea as obtained in example 1
B: 10 ppm N-vanillyl urea as obtained in example 1
C: 100 ppm N-vanillyl urea as obtained in example 1
All solutions were tasted by a trained flavourist panel and compared to a 5% (w/w) alcoholic solution (the reference).

With `COc1cc(CNC(N)=S)ccc1O` [N-vanillyl thiourea] as the compound, how does the taste [1] read?
Its taste is “tasteless”.

And the “taste of solution in water” value ([2]; 25 ppm in water)?
The value was “tingling, burning and slightly bitter taste and a weak vanillin-like flavour sensation”.

Which pungency [1] does the source give for `COc1cc(CNC(=S)Nc2ccc(C)cc2)ccc1O` [p-tolylvanillyithiourea] here?
The pungency was “property of pungency but to a lesser degree than capsaicin”.

Which “onset of salt impression compared to the reference” value ([3]; 0.1 ppm in 0.6% NaCl) does the source give for `CCCCCCCCNC(=O)NCc1ccc(O)c(OC)c1` [N-vanillyl-N′-octyl urea, N-octyl-N′-vanillyl urea] here?
The value was “came faster than in the reference”.

And the “saltiness compared to the reference sample” value ([3]; 0.1 ppm in 0.6% NaCl)?
Its value is “more salty compared to the reference sample”.

What about the duration of hotness ([3]; 5 ppm in 0.6% NaCl) of the same compound?
Its duration of hotness is “up to 10 minutes”.

And the “onset of salt impression compared to the reference sample” value ([3]; 5 ppm in 0.6% NaCl)?
The value was “came faster than in the reference sample”.

What about the “saltiness and hotness compared to the reference sample” value ([3]; 5 ppm in 0.6% NaCl) of the same compound?
The value was “more salty and had a ‘clean’ and long lasting (up to 10 minutes) hotness compared to the reference sample”.

What about the “taste of solution in water” value ([2]; 1 ppm in water) of the same compound?
Its value is “strong tingling and burning taste”.

And the “cooling effect compared with the base toothpaste” value ([4]; 0.1 ppm in toothpaste)?
Its value is “more aggressive cooling and more cooling volume in the oral cavity than the base”.

What about the “hotness and overall impression compared to the reference sample” value ([5]; 1 ppm in 0.6% NaCl) of the same compound?
The value was “clearly more hot than the reference sample and the overall impression is much stronger”.

What about the “cooling effect compared to the reference sample” value ([6]; 0.1 ppm in fondant with 2500 ppm menthol) of the same compound?
The value was “more intense and long-lasting cooling effect compared to the reference sample”.

Which taste [1] does the source give for phenylvanillylthiourea here?
Its taste is “tasteless”.

And the pungency [1]?
Its pungency is “property of pungency but to a lesser degree than capsaicin”.

With `CCCCCCCCNC(=S)NCc1ccc(O)c(OC)c1` [N-vanillyl-N′-octyl thiourea] as the compound, how does the “salt effects compared to the reference sample” value ([3]; 0.2 ppm in 0.6% NaCl, relative to sample A) read?
Its value is “the same effects but slightly weaker”.

What about the “salt and hotness effects compared to the reference sample” value ([3]; 10 ppm in 0.6% NaCl, relative to sample A) of the same compound?
The value was “the same effects but slightly weaker”.

What about the “hotness and overall impression compared to the reference sample” value ([5]; 2 ppm in 0.6% NaCl, relative to sample A) of the same compound?
Its value is “the same effects but slightly weaker”.

What about the “cooling effect compared to the reference sample” value ([6]; 0.2 ppm in fondant with 2500 ppm menthol, relative to sample A) of the same compound?
The value was “the same effects but slightly weaker”.

With `CCNC(=O)C1CC(C)CCC1C(C)C` (stereo not drawn) [WS-3, reference compound] as the compound, how does the “cooling effect compared with the base toothpaste” value ([4]; 10 ppm in toothpaste) read?
Its value is “in between sample A and the base in cooling strength”.

For o-tolylvanillylthiourea, which pungency [1] is on record?
The pungency was “property of pungency but to a lesser degree than capsaicin”.

With `COc1cc(CNC(N)=O)ccc1O` [N-vanillyl urea] as the compound, how does the taste [1] read?
Its taste is “tasteless”.

What about the “taste of solution in water” value ([2]; 50 ppm in water) of the same compound?
The value was “slightly tingling taste and a weak vanillin-like flavour sensation”.

What about the taste description [7] of the same compound?
The taste description was “more salty, umami, warm, bite, preferred to A”.

And the taste description [8]?
Its taste description is “powerful and full cooling sensation, preferred to the base”.

And the “taste compared to the reference” value ([9]; 1 ppm in 5% (w/w) ethanol)?
Its value is “more alcohol-like bite than the reference”.

What about the “taste compared to the reference” value ([9]; 10 ppm in 5% (w/w) ethanol) of the same compound?
The value was “stronger hot, sharp and pungent, ethanol-like taste compared to the reference solution”.

What about the “taste compared to the reference” value ([9]; 100 ppm in 5% (w/w) ethanol) of the same compound?
Its value is “stronger hot, sharp and pungent, ethanol-like taste compared to the reference solution”.
